Experimental findings from ChEMBL document CHEMBL1201862, “PubChem BioAssay data set” (2004) are described below.

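Dose response: 5 concentrations. Exposure: 48 h. Format: 96-well plates. Endpoint: linear interpolation; highest concentration if not reached. GI50 = concentration required for 50% inhibition of growth.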 Calls of active or inactive are those of the source. Cut-off read from the data, not from the text of the source: active = GI50 up to about 1.1 µM and inactive = higher.

Holding throughout (assay): growth of human tumour cells (NCI), 48 h
The test system of assay [1] is MDA-MB-435.
Assay [2] concerns IGROV-1.
Assay [3] relates to Hs-578T.
Assay [4] has as its system MDA-N.
Assay [5] relates to UACC-62.
For assay [6], the system named is EKVX.
The subject of assay [7] is SK-MEL-2.
The subject of assay [8] is OVCAR-4.
For assay [9], the system named is UO-31.
For assay [10], the system named is MCF7.
Assay [11] has as its system SNB-19.
Assay [12] has as its system 786-0.
The test system of assay [13] is TK-10.
Assay [14] deals with OVCAR-8.
The test system of assay [15] is HCT-116.
The subject of assay [16] is SF-539.
Assay [17] relates to SN12C.
The test system of assay [18] is NCI-H522.
Assay [19] has as its system A498.
Assay [20] deals with SW-620.

For the compound `CC(C)C(O)(C(C)C)C(C)C`, the GI50 in assay [1], in [2], in [3], in assay [4], in [5] and in assay [6] was > 100 µM (inactive) throughout. For the same compound, the GI50 in [7], in assay [8], in assay [9], in assay [10], in [11] and in [12] was > 100 µM (inactive) throughout. Further, the GI50 in [13], in assay [14], in assay [15], in assay [16], in [17] and in assay [18] was > 100 µM (inactive) throughout. Moreover, the GI50 in assay [19] was > 100 µM (inactive).

For the compound `CC(C)CCNC(=O)c1ccc(CNC(=O)/C=C/c2csc(-c3ccccc3)n2)cc1`, the GI50 is > 100 µM (inactive) in assay [1]; 34.2 µM (inactive) in [2]; 32.6 µM (inactive) in [3]; > 100 µM (inactive) in [4]; > 100 µM (inactive) in assay [5]; > 100 µM (inactive) in [6]. The GI50 is > 100 µM (inactive) in assay [20]; > 100 µM (inactive) in assay [7]; 14.5 µM (inactive) in assay [8]; 19.6 µM (inactive) in assay [9]; > 100 µM (inactive) in [10]; 17.8 µM (inactive) in [11]. Also, the GI50 in assay [12] is 32.7 µM (inactive); in [13] it was 53.2 µM (inactive); in assay [14], 25.8 µM (inactive); in assay [15], 46.7 µM (inactive); in [16] it was > 100 µM (inactive); in assay [17], 64.3 µM (inactive). In addition, the GI50 in assay [18] is 41 µM (inactive); in [19] it was 19.9 µM (inactive).

Turning to `C=C1C(=O)O[C@@H]2C[C@@]3(C)CC(=O)C=C(C)[C@@H]3C[C@H]12`, the GI50 in assay [1] was 5.66 µM (inactive); in assay [2], 13.3 µM (inactive); in assay [3], 27.2 µM (inactive); in assay [4] it was 3.74 µM (inactive); in assay [5] it was 14.6 µM (inactive); in assay [6], 12.2 µM (inactive). The GI50 in [20] was 3.33 µM (inactive); in assay [7], 12.9 µM (inactive); in assay [8], 9.1 µM (inactive); in assay [9] it was 11.5 µM (inactive); in assay [10], 3.22 µM (inactive); in [11] it was 17.3 µM (inactive). In addition, the GI50 in assay [12] was 12.4 µM (inactive); in assay [13], 10.2 µM (inactive); in [14] it was 15 µM (inactive); in assay [15], 5.32 µM (inactive); in [16], 13.3 µM (inactive); in assay [17] it was 11.1 µM (inactive). For the same compound, the figures for the GI50 in assay [18] and in [19] were 4.46 µM (inactive) and > 10 µM (inactive), respectively.

Consider `C=C=C(CC(CC(=C)Br)(C(=O)OC)C(=O)OC)S(=O)(=O)c1ccccc1`, for which the GI50 in assay [1] is 1.74 µM (inactive); in assay [2], 1.66 µM (inactive); in [3], 2.39 µM (inactive); in assay [4] it was 2.44 µM (inactive); in assay [5], 1.61 µM (inactive); in assay [6] it was 2.82 µM (inactive). The GI50 in [20] is 1.58 µM (inactive); in assay [7], 2.5 µM (inactive); in assay [8] it was 8.89 µM (inactive); in assay [9], 1.71 µM (inactive); in assay [10] it was 1.87 µM (inactive); in assay [11], 12.2 µM (inactive). Further, the GI50 was 1.05 µM (active) in assay [12]; 1.96 µM (inactive) in assay [13]; 1.29 µM (inactive) in assay [14]; 0.92 µM (active) in assay [15]; 1.8 µM (inactive) in assay [16]; 1.53 µM (inactive) in assay [17]. For the same compound, the GI50 was 0.556 µM (active) in [18] and 5.6 µM (inactive) in assay [19].
